Consider 1 compound from publication PMC9611521, “Optimization of Resveratrol Used as a Scaffold to Design Histone Deacetylase (HDAC-1 and HDAC-2) Inhibitors” (Pharmaceuticals, 2022).

SMILES strings stand for the structures.

One may read the inhibition as the drop in the measured response relative to a control, in per cent. A low value points to a response near the control. As usually defined, the IC50 is the midpoint of a concentration-inhibition curve. High values mean a need for much substance, low ones inhibition by little substance.

Holding throughout (assay type): biochemical
Assay [1] has as its target HDAC-4 (Homo sapiens, UniProt P56524). In words: Enzymatic HDAC selectivity panel, HDAC-4. The following applies: compound at 10 µM. How it is done:
(§1) Enzymatic assays to evaluate HDAC inhibition were performed, and the design involved three steps: (a) Preliminary screening to identify the most promising compounds; (b) Evaluation by a panel of HDAC isoforms to investigate selectivity; and (c) Determination of IC50 values. Firstly, compounds (4–7; 15–26) were evaluated at 10 µM against HDAC-1 and HDAC-2 (Table 2).
(§2) The enzymatic assay to evaluate HDAC inhibitory effects for all final compounds against the distinct isoforms was carried out in accordance with the previously described procedures (Lopes et al., 2021). All compounds were initially screened at 10 µM against HDAC-1 and HDAC-2. […] All the compounds were dissolved in DMSO. A serial dilution of the compounds was performed in 100% DMSO with the highest concentration at 1 mM. Each intermediate compound dilution (in 100% DMSO) was diluted 10x in assay buffer to form a 10% DMSO intermediate dilution in HDAC assay buffer. 5 µL of this dilution was added to a 50 µL reaction to bring the final concentration of DMSO to 1% in all the reactions. […] The fluorescence intensity was measured at an excitation of 360 nm and emission of 460 nm using a Tecan Infinite M1000 microplate reader, and the percentage of activity was calculated using the formula: % activity = (F − Fb)/(Ft − Fb), where F = the intensity of fluorescence in the presence of the compound. […]

Assay [2] deals with HDAC-1 (Homo sapiens, UniProt Q13547). The experiment in a line: Enzymatic HDAC inhibition assay (fluorescence), HDAC-1. As to the method: as §1
HDAC-1, sequence (Q13547 whole entry, canonical isoform): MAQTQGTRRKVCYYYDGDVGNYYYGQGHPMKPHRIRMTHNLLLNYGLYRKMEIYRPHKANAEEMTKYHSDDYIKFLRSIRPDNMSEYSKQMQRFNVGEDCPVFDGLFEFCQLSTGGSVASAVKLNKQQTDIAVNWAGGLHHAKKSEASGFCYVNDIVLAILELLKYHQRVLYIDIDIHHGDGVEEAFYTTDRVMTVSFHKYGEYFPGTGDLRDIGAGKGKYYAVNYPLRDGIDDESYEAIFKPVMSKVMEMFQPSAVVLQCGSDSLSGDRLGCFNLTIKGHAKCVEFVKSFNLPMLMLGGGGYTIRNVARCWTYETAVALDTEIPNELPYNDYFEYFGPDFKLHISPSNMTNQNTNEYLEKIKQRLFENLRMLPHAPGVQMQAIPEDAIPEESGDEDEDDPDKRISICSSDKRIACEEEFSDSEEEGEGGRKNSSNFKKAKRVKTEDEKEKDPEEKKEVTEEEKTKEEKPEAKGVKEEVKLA
The enzymatic assay to evaluate HDAC inhibitory effects for all final compounds against the distinct isoforms was carried out in accordance with the previously described procedures (Lopes et al., 2021). All compounds were initially screened at 10 µM against HDAC-1 and HDAC-2. […] All the compounds were dissolved in DMSO. A serial dilution of the compounds was performed in 100% DMSO with the highest concentration at 1 mM. Each intermediate compound dilution (in 100% DMSO) was diluted 10x in assay buffer to form a 10% DMSO intermediate dilution in HDAC assay buffer. 5 µL of this dilution was added to a 50 µL reaction to bring the final concentration of DMSO to 1% in all the reactions. Three independent experiments were carried out in triplicate for all experiments. The fluorescence intensity was measured at an excitation of 360 nm and emission of 460 nm using a Tecan Infinite M1000 microplate reader, and the percentage of activity was calculated using the formula: % activity = (F − Fb)/(Ft − Fb), where F = the intensity of fluorescence in the presence of the compound. In the absence of the test compound, the fluorescent intensity (Ft) in each dataset was defined as 100% activity, while in the absence of HDAC, the fluorescent intensity (Fb) in each dataset was set to 0% activity.

Assay [3] addresses T1, HDAC-8 (Homo sapiens, UniProt Q9BY41).
T1 sequence (Q9BY41 1-377): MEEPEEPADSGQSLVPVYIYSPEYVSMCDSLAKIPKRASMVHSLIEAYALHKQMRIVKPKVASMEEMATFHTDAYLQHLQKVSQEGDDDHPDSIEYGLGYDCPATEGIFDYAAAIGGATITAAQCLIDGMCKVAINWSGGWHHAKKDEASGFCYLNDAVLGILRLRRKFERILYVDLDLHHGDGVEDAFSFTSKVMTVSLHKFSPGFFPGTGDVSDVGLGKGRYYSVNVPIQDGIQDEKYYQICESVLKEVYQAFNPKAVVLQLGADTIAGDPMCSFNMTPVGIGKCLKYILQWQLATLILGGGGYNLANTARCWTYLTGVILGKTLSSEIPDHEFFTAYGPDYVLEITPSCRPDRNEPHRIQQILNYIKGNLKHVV
In words: Enzymatic HDAC selectivity panel, HDAC-8. The settings on record: compound at 10 µM. How it is done: as §1, §2

Assay [4] deals with T2, HDAC-10 (Homo sapiens, UniProt Q969S8).
T2 sequence (Q969S8 1-669): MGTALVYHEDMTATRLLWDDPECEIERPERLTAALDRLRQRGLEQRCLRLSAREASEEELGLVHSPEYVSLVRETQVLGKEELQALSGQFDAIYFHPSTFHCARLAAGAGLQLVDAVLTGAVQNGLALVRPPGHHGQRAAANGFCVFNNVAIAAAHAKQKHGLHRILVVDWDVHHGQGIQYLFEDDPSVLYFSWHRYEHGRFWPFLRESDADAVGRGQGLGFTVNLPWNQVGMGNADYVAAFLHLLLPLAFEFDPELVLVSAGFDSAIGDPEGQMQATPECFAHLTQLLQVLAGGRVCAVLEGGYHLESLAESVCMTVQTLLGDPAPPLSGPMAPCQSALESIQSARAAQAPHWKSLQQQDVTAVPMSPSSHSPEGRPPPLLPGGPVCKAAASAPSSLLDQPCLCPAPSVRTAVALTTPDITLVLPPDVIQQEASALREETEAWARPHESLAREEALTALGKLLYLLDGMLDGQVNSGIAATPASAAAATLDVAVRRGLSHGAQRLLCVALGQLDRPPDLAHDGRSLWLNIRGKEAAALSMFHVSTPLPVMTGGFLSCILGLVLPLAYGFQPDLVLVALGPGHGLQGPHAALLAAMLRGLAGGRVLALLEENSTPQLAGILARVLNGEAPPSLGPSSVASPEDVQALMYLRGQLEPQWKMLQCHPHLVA
In words: Enzymatic HDAC selectivity panel, HDAC-10. The settings on record: compound at 10 µM. As to the method: as §1, §2

HDAC-4, sequence (P56524 whole entry, canonical isoform): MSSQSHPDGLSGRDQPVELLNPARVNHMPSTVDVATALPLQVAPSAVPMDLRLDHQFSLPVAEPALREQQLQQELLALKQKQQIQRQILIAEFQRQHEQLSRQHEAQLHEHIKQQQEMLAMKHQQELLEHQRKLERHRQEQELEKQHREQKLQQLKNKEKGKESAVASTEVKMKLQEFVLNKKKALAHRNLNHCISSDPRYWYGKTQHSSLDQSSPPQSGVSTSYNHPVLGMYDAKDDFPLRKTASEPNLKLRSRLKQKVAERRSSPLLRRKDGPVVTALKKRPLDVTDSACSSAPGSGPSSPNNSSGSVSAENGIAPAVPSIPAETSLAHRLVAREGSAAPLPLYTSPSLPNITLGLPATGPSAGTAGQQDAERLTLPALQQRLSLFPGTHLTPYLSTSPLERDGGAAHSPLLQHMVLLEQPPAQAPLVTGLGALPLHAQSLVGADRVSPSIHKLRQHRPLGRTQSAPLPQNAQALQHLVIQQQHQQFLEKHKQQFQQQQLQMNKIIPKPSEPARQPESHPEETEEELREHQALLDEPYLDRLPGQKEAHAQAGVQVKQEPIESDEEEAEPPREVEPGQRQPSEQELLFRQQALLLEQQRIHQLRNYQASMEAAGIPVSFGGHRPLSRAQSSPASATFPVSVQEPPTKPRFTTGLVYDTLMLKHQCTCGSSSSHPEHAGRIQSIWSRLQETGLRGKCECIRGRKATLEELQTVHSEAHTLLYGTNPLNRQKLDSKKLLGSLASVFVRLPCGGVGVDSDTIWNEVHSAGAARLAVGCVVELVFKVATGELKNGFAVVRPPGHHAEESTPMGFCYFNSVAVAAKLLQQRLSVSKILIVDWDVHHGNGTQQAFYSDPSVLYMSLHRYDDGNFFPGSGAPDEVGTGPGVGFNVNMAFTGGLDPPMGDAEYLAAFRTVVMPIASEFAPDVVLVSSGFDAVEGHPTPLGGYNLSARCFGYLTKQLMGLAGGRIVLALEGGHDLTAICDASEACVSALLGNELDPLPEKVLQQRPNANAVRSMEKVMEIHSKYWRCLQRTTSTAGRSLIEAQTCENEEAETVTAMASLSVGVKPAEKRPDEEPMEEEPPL

For the compound `Nc1ccc(CCc2ccc(C(=O)Nc3ccccc3N)cc2)cc1` [Compound (5)], the inhibition at 10 µM in assay [1] is 5 ± 0.4%; in assay [2] (compound at 10 µM), 92%; in assay [3], 13 ± 1%; in assay [4], 60 ± 1.4%. In addition, in assay [2] (compound at 10 µM, 10 µM), the HDAC-1 inhibition was found to be 93 ± 1.0%. This compound yielded an IC50 in assay [2] (substrate 10 µM) of 440 nM.
